Laboratory results from patent US20210007360A1, “SOLUTIONS COMPRISING OZONIZED OIL” (priority 2018, published 2021).

Legend:
knees of patients = experiment: Intra-articular ozone and PRP treatment of knees, VAS scores; type: in vivo, human; conditions: 8 sessions of ozone and 2 sessions of PRP, 187 knees of 100 patients, baseline 8.5
Excerpt: Ozone gas injection may cause short-term burning and itching. However, this effect is rarely seen in intramuscular injections. For this reason, ozonide solutions comprising local anesthetic should be preferred especially if superficial injection will be performed. […] It is known that it prevents loss of cartilage by increasing oxygenation of the joint cartilage and reduces pain due to the analgesic effect with its anti-inflammatory effect. There are many publications in the literature about this issue. Similarly, in our own research, it was observed that VAS scores decreased from 8.5 to 4 on average as a result of the application of 8 sessions of ozone and 2 sessions of PRP treatment on 187 knees of 100 patients. In these applications, 20 micrograms of ozone are given as 20 ml (cc). That is, 400 micrograms of ozone have been applied. […] It can be applied at most twice a week. In addition, it can be combined with local anesthetic and anti-inflammatory agents. Vitamin E, which becomes popular in experimental studies in recent years, can be applied together with oil solutions and anti-inflammatory drugs. Hyaluronic acid is known to increase cartilage matrix in the intraarticular injection. It is known that better results are obtained with the ozone treatment and hyaluronic acid combinations. […]

[1] = test system: patients diagnosed with a cervical disc hernia; experiment: Regional injections of ozone and PRP in cervical disc hernia, VAS pain score; type: in vivo, human; conditions: 8 sessions of ozone, 2 sessions of PRP, 66 patients, 9.3 at the beginning
Procedure: Cervical disc and spinal disc hernias are one of the common health issues. In the studies we conduct on 66 patients diagnosed with a cervical disc hernia, the pain score is evaluated according to the VAS in 1 month, 4 months and 1 year after the regional injections of 8 sessions of ozone, 2 sessions of PRP. The pain score was 9.3 at the beginning, 6.9 in the first month, 4.8 in the 4th month and 3.6 at the end of the first year. It is also found in the literature that the regional injections of ozone are so effective. However, to perform these applications, there is a need for a clinic or a hospital where ozone treatment is offered. The dosages of solutions of ozonized oil or ozonides in water in regional applications are also applicable here. Depending on the size of the region, the ozonized oil or ozonide solution of 2-4 mg (2000-4000 ppm), which is made with ozonides comprising 10% ozone may be injected into paravertebral muscles and subcutaneous tissue to be able to benefit from anti-inflammatory and analgesic effects. However, with tissue oxygenation, dissolution of muscle spasm, and increased blood supply to the hernia, a long-acting treatment and shrinking of the hernia is provided.

[2] = 20° C.; cited from earlier work
[3] = cited from earlier work

SMILES: O=[O+][O-] [ozone]
- VAS score after treatment, average (knees of patients): 4
- VAS pain score at the end of the first year [1]: 3.6
- VAS pain score in the 4th month [1]: 4.8
- VAS pain score in the first month [1]: 6.9
- half life [2]: 40 min

SMILES: CCN(CC)CC(=O)Nc1c(C)cccc1C [Lidocaine]
- duration of effect in the injection zone ([3]; normal injection): up to 2 hours

SMILES: CCCCN1CCCCC1C(=O)Nc1c(C)cccc1C (stereo not shown) [bupivacaine]
- duration of local effect ([3]; injection in oil): 72 h
